Measurements reported in patent publication US5849865A, “Peptides for altering bone resorption, angiogenesis and restenosis” (La Jolla Cancer Research Foundation, priority 1995, dated 1998).
Entries after “also recorded” stand apart in the source; their conditions may differ. Where a SMILES comes first, the peptide text is derived from it. Bridges are numbered along the chain shown (N, C = ends). [ ]: non-standard residue; d: D form. Tic = O=C(O)[C@@H]1Cc2ccccc2CN1; Pen = CC(C)(S)[C@H](N)C(=O)O; Mpa = O=C(O)CCS

Legend:
[1] = series of assays of Examples II and III for potency and selectivity
Excerpt: Peptides of the RGDNTic (SEQ ID NO: 56) pharmacophore group are characterized, in general, as having increased potency, whereas the peptides of the pharmacophore RGDDV (SEQ ID NO: 1) group generally have higher receptor selectivity. […] As used herein, the term "potency" or "potent" means that a peptide of the invention is active at a relatively low concentration in the assays described in Examples II and III. A potent peptide of the invention can be identified, for example, using the assays described in Examples II and III.
The present invention also provides a series of in vitro and in vivo assays useful for screening a panel of peptides in order to identify peptides that can reduce or inhibit bone resorption or that can alter integrin binding such as αv β3 integrin receptor-mediated binding. Such peptides can include, for example, peptides within the pharmacophore groups exemplified herein or peptides within other pharmacophore groups. The series of assays disclosed herein is particularly useful for determining the selectivity and potency of a peptide for reducing or inhibiting bone resorption. The selectivity of a peptide for an integrin receptor involved in osteoclast binding to bone can be determined, for example, using the integrin receptor assays and cell attachment and detachment assays described herein. Use of cell-based assays in conjunction with receptor-based assays is informative because the receptor ELISAs provide useful information regarding the binding characteristics of a particular peptide toward a particular integrin and because the cell-based assays confirm that those characteristics are relevant to the αv β3 receptor or to bone resorption.

αv β3 receptor = target: T1, αv β3 receptor (Homo sapiens, UniProt P05106+P06756); assay type: binding; conditions: comparison of IC50 values of αv β3 ELISA / JY cells with αv β5 and α5 β1 ELISAs
T1 construct: The αv β3 receptor was purified from octyl-glucopyranoside-extracted human placenta; from tissue
Procedure: Peptide binding to purified αv β3 receptor was determined by using a competitive ELISA, in which αv β3 receptor was immobilized and the binding of solubilized VN, in the presence of various concentrations of peptide analogue, was detected using a monoclonal mouse IgG anti-VN antibody and a labelled anti-mouse IgG conjugate.
96 well microtiter plates were coated overnight at RT with 100 μl/well of αv β3 receptor (0.5 μg/ml in 1×TBS, 4 mM octylglucoside, 1 mM CaCl2). The wells were blocked with 200 μl/well of 1% BSA in 1×TBS, 1 mM CaCl2 for at least 30 min. The plates were washed 2× with 1×TBS, 1 mM CaCl2. 50 μl peptide in 1×TBS, 1 mM CaCl2, 0.05% "TWEEN 20" (polyoxyethylenesorbitan monolaurate) was added in 10-fold serial dilutions. 50 μl of Vn in the same buffer then was added to each well.
The plates were incubated for 3 hr at RT, then washed 3× with 1×TBS, 0.05% "TWEEN 20". 100 μl of 8E6 (Telios) diluted to 1:6000 in 1×TBS, 0.05% "TWEEN 20" was added to the wells and the plates were incubated for 1 hr at RT. Plates were washed 3× with 1×TBS, 0.05% "TWEEN 20". Affinity purified goat anti-mouse IgG conjugated to horseradish peroxidase (100 μl/well; BioRad; Hercules Calif.) was added to each well and incubated for 1 hr at RT. Plates were washed 3× with 1×TBS, 0.05% "TWEEN 20". 100 μl/well of substrate mixture (10 mg O-phenylenediamine in 25 ml 0.1M citrate-phosphate buffer, pH 5.0, 6 μl 30% H2 O2) was added to the plates and allowed to develop. The development process was stopped by adding 50 μl to 4N H2 SO4 to each well. The plates were read at 490 nm and the data analyzed by four parameter fit.

osteoclasts = conditions: Sato et al. 1990; EP 437,367; cited from earlier work
[2] = Fisher et al. 1993; cited from earlier work
α5 β1 (FnR) = target: T2, α5 β1 (FnR) (Homo sapiens, UniProt P05556+P08648); assay: α5 β1 ELISA (competitive); assay type: binding; conditions: comparison of receptor ELISAs
T2 construct: Fibronectin receptor (FnR) was purified from 100 mM octyl-glucopyranoside-extracted human placenta; from tissue
Procedure: Peptide binding to purified human α5 β1 (FnR) also as determined using a competitive ELISA. In these assays, […] was immobilized to the wells and the binding of solubilized FnR in the presence of various concentrations of a peptide analogue was determined using a mouse monoclonal antibody to human β1 (clone P4C10; Gibco) and specific binding was visualized using a second antibody.
Microtiter wells were coated at RT by adding 100 μl of 2 μg/ml human Fn in TBS and incubating the plates overnight at 4° C. Following incubation, the plates were washed 3× with TBS/"TWEEN 20". RGD peptides were diluted in TBS containing 20 mM OG and 2 mM MnCl2 and 50 μl was added to wells at 10-fold serial dilutions. FnR was diluted in the same buffer and 50 μl was added to each well.
The plates were incubated for 3 hr at RT and washed with 300 μl TBS/"TWEEN 20". Bound receptor was incubated with 100 μl of the monoclonal anti-β1 antibody for 2 hr, then washed 3× with TBS/"TWEEN 20". […] The amount of bound second antibody was determined as described above.
The IC50 values for various RGD peptides were calculated by determining the concentration of a peptide that inhibited binding of Vn to αv β5 or αv β3 or of Fn to α5 β1 by 50%. The results of these assays are shown in FIG. 2 (columns designated "Receptor Assays").

[3] = parathyroid hormone-induced hypercalcemia in mice; assay type: in vivo, Swiss-Webster mice; conditions: parathyroidectomized mice, 0.2 mg PTH/kg i.v., peptide infused 4 hr
Excerpt: Parathyroid hormone (PTH) activates osteoclasts, which are involved in bone resorption. Associated with the increased osteoclast activity is an increase in serum calcium. The PTH-induced hypercalcemia assay measures the level of serum calcium, which is an indication of bone resorption in a subject (Fischer et al., Endocrinology 132:1411-1413 (1993), which is incorporated herein by reference).
Swiss-Webster mice, which had been parathyroidectomized two weeks prior to beginning the assay, were obtained from Taconic Lab Animals and Services (Germantown N.Y.). Femoral vein catheters (PE-50 fused with PE10 polyethylene tubing; Becton Dickinson; Parsippany, N.J.) were installed in the mice, flushed and locked with heparinized saline (1:10), sutured to adjacent muscle and internalized within the inguinal space of the incision before closing the incision with wound clips. […]
The experiment was initiated by feeding the mice a calcium-deficient diet overnight, then injecting the mice the following morning with a bolus of 0.2 mg PTH/kg (hPTH 1-34; Bachem; Torrance Calif.), intravenously. […] Various doses of a peptide or vehicle were infused into an animal for 4 hr, then ionized serum calcium again was measured. […] Serum calcium measurements were expressed as the difference between the value 30 min before the PTH pulse and 4 hr after peptide infusion was started. […]

[4] = Choi et al. 1994; cited from earlier work

## CC(=O)N[C@@H]1C(=O)N[C@@H](Cc2ccccc2)C(=O)N[C@@H](C)C(=O)N[C@@H](CCCNC(=N)N)C(=O)NCC(=O)N[C@@H](CC(=O)O)C(=O)N[C@@H](CC(N)=O)C(=O)N2CCC[C@H]2C(=O)N[C@H](C(N)=O)CSSC1(C)C [peptide 214] (Ac-[Pen]FARGDNPC-NH2; disulfide 1-9)
[1]; summary of assays
  potency (active at a relatively low concentration): particularly potent

## CC(=O)N[C@H]1CSSC(C)(C)[C@@H](C(N)=O)NC(=O)[C@@H]2CCCN2C(=O)[C@H](CC(N)=O)NC(=O)[C@H](CC(=O)O)NC(=O)CNC(=O)[C@H](CCCNC(=N)N)NC1=O [compound 228] (Ac-CRGDNP[Pen]-NH2; disulfide 1-7)
αv β3 receptor
  receptor selectivity for αv β3 as compared to αv β5 and α5 β1: particularly receptor selective

## CC(C)[C@@H]1NC(=O)[C@H](CC(=O)O)NC(=O)[C@H](CC(=O)O)NC(=O)CNC(=O)[C@H](CCCNC(=N)N)NC(=O)CNC(=O)C[C@@H](C(N)=O)NC1=O [peptide 368] (GRGDDVD-NH2; lactam N-7)
αv β3 receptor
  receptor selectivity for αv β3 as compared to αv β5 and α5 β1: receptor selective for αv β3; also recorded: selective peptide; also recorded: particularly receptor selective
[1]; summary of assays
  both potent and selective: both potent and selective

## CC(=O)N[C@H]1CSSC[C@@H](C(N)=O)NC(=O)[C@@H]2Cc3ccccc3CN2C(=O)[C@H](CO)NC(=O)[C@H](CC(=O)O)NC(=O)CNC(=O)[C@H](CCCNC(=N)N)NC1=O [compound 812, Ac-CRGDS(Tic)C-NH2] (Ac-CRGDS[Tic]C-NH2; disulfide 1-7)
[1]
  activity of minimal-element peptides (FIG. 2): demonstrate activity
[1]; summary of assays
  potency (active at a relatively low concentration): particularly potent

## echistatin
osteoclasts
  bone resorption in vitro: inhibits bone resorption in vitro
[2]
  bone resorption in vivo: inhibits bone resorption

## N=C(N)NCCC[C@@H]1NC(=O)CC[C@@H](C(N)=O)NC(=O)[C@@H]2CCCN2C(=O)[C@H](CO)NC(=O)[C@H](CC(=O)O)NC(=O)CNC1=O [compound 825] (RGDSPE-NH2; lactam N-6)
α5 β1 (FnR)
  selectivity toward α5 β1 versus αv β5: more selective toward α5 β1 than toward αv β5

## CC(C)[C@@H]1NC(=O)[C@H](CC(=O)O)NC(=O)[C@H](CC(=O)O)NC(=O)CNC(=O)[C@H](CCCNC(=N)N)NC(=O)CCSSC[C@@H](C(N)=O)NC1=O [compound 191] ([Mpa]RGDDVC-NH2; disulfide 1-7)
[3]
  PTH-induced rise in serum ionized calcium: decreased the PTH-induced rise in serum ionized calcium in a dose responsive manner

## CC(C)[C@@H]1NC(=O)[C@H](CC(=O)O)NC(=O)[C@H](CC(=O)O)NC(=O)CNC(=O)[C@H](CCCNC(=N)N)NC(=O)[C@H](C)NC(=O)[C@H](CCCNC(=N)N)NC(=O)[C@@H](NC(=O)CN)C(C)(C)SSC[C@@H](C(=O)N[C@@H](C)C(=O)O)NC1=O [compound 138] (H-G[Pen]RARGDDVCA-OH; disulfide 2-10)
αv β3 receptor
  receptor selectivity for αv β3 as compared to αv β5 and α5 β1: particularly receptor selective

## G(Pen)GRGDSPCA
[4]
  neointimal hyperplasia: can inhibit neointimal hyperplasia

## C[C@H](NC(=O)[C@@H]1CSSC(C)(C)[C@H](NC(=O)CN)C(=O)N[C@@H](CCCNC(=N)N)C(=O)N[C@@H](C)C(=O)N[C@@H](CCCNC(=N)N)C(=O)NCC(=O)N[C@@H](CC(=O)O)C(=O)N[C@@H](CC(N)=O)C(=O)N2CCC[C@H]2C(=O)N1)C(=O)O [compound 100] (H-G[Pen]RARGDNPCA-OH; disulfide 2-10)
α5 β1 (FnR)
  selectivity toward α5 β1 versus αv β5: more selective toward α5 β1 than toward αv β5

## C[C@H](NC(=O)[C@@H]1CSSC(C)(C)[C@H](NC(=O)CN)C(=O)N[C@@H](C)C(=O)N[C@@H](C)C(=O)N[C@@H](CCCNC(=N)N)C(=O)NCC(=O)N[C@@H](CC(=O)O)C(=O)N[C@@H](CC(N)=O)C(=O)N2CCC[C@H]2C(=O)N1)C(=O)O [compound 310] (H-G[Pen]AARGDNPCA-OH; disulfide 2-10)
α5 β1 (FnR)
  selectivity toward α5 β1 versus αv β5: more selective toward α5 β1 than toward αv β5

## C[C@@H]1NC(=O)[C@H](C)NC(=O)[C@@H](NC(=O)CN)C(C)(C)SSC[C@@H](C(N)=O)NC(=O)[C@H]([C@@H](C)O)NC(=O)[C@H](CC(=O)O)NC(=O)[C@H](CC(=O)O)NC(=O)CNC(=O)[C@H](CCCNC(=N)N)NC1=O [compound 186] (H-G[Pen]AARGDDTC-NH2; disulfide 2-10)
αv β3 receptor
  receptor selectivity for αv β3 as compared to αv β5 and α5 β1: particularly receptor selective

## C[C@@H]1NC(=O)[C@H](CCCNC(=N)N)NC(=O)CNC(=O)CC[C@@H](C(N)=O)NC(=O)[C@@H]2CCCN2C(=O)[C@H](CC(N)=O)NC(=O)[C@H](CC(=O)O)NC(=O)CNC(=O)[C@H](CCCNC(=N)N)NC1=O [compound 390] (GRARGDNPE-NH2; lactam N-9)
α5 β1 (FnR)
  selectivity toward α5 β1 versus αv β5: more selective toward α5 β1 than toward αv β5
